Laboratory results taken from BindingDB's records for patent US20250223301 (Inventisbio Co., 2025).

Key:
[1] = target: Diacylglycerol kinase alpha (Homo sapiens, UniProt P23743); test: DGK ADP-Glo Kinase Assay
Description: (§1) Luminescence was recorded using an Tecan SPARK microplate reader.

[2] = target: Diacylglycerol kinase zeta (Homo sapiens, UniProt Q13574); test: DGK ADP-Glo Kinase Assay
Description: as §1

Diacylglycerol kinase zeta, sequence (Q13574 as listed by the source): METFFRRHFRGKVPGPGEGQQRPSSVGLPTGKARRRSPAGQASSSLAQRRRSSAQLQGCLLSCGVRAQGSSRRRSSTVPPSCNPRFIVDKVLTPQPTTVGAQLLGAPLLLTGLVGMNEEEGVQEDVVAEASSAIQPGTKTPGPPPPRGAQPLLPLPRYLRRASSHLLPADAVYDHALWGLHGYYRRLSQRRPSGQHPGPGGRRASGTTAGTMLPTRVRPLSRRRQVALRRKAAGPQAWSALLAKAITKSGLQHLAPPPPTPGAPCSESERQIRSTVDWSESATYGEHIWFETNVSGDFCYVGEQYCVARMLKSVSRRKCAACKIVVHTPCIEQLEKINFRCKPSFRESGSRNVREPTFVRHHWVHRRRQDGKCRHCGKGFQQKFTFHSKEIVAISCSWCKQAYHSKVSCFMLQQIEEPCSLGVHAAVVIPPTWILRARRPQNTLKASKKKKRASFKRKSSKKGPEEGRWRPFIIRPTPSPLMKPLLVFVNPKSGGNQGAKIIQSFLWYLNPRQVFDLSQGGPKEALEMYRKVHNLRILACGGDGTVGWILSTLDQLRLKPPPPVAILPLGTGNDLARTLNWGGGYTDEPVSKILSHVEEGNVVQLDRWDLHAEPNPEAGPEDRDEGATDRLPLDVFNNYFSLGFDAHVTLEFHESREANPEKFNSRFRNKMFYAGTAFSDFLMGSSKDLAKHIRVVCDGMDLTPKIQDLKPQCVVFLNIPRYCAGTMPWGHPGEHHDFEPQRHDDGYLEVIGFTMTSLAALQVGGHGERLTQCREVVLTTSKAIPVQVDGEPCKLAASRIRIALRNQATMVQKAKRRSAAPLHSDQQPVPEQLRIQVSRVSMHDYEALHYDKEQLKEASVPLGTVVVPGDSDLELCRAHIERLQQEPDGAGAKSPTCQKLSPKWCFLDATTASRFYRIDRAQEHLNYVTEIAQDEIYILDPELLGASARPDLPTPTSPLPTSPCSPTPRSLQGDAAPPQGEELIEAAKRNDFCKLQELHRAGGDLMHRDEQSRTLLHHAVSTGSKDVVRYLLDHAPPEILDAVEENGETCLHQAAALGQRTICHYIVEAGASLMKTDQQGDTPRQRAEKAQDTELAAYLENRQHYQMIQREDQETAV
Diacylglycerol kinase alpha, sequence (P23743 whole entry): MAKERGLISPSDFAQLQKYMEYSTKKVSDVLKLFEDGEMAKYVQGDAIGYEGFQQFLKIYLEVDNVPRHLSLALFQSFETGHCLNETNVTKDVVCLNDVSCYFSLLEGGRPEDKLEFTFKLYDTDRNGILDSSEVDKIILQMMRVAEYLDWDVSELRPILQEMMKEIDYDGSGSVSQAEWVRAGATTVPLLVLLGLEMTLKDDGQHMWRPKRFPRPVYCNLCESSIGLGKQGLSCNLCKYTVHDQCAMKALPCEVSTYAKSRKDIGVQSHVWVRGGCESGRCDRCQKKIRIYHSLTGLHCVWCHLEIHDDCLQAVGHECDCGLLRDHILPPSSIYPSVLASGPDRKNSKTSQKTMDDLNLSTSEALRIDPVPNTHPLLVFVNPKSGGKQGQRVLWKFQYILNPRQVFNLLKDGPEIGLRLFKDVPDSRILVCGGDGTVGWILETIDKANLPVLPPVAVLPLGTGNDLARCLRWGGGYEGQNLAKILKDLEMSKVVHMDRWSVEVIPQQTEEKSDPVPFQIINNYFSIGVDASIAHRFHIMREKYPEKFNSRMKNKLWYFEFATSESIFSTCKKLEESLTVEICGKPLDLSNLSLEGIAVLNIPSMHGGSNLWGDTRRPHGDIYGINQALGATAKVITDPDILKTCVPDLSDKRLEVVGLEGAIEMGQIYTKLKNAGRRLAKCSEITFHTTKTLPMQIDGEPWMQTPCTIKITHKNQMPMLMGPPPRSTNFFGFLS

CCC(c1cccc(S(F)(F)(F)(F)F)c1)N1C[C@H](CC)N(c2nc(=O)n(C)c3ccc(C#N)nc23)C[C@H]1CC (single isomer, unassigned) [US20250223301, Compound 55]
IC50 [1]: 76 nM
IC50 [2]: 12 nM
